{
  "source": "patent US20190014776A1",
  "about": "(priority 2017, published 2019)",
  "assay_type": "physicochemical",
  "conditions": "relative to tank mix of CLARITY and CONTROLMAX; dicamba 1.2 wt. % a.e., glyphosate 2.4 wt. % a.e.; 35° C., 40% RH, 24 hours",
  "experimental": "The dicamba volatility from each composition was measured by the procedure described in “A Method to Determine the Relative Volatility of Auxin Herbicide Formulations” in ASTM publication STP1587 entitled “Pesticide Formulation and Delivery Systems: 35th Volume, Pesticide Formulations, Adjuvants, and Spray Characterization in 2014, published 2016, which is incorporated herein by reference.\nHumidomes obtained from Hummert International (Part Nos 14-3850-2 for humidomes and 11-3050-1 for 1020 flat tray) were modified by cutting a 2.2 cm diameter hole on one end approximately 5 cm from the top to allow for insertion of a glass air sampling tube (22 mm OD) containing a polyurethane foam (PUF) filter. The sampling tube was secured with a VITON o-ring on each side of the humidome wall. The air sampling tube external to the humidome was fitted with tubing that was connected to a vacuum manifold immediately prior to sampling.\nThe flat tray beneath the humidome was filled with 1 liter of sifted dry or wet 50/50 soil (50% Redi-Earth and 50% US 10 Field Soil) to a depth of about 1 cm. […]\nThe flat tray bottom containing the auxin herbicide formulation on soil was covered with the humidome lid and the lid was secured with clamps. […] The PUF filter was extracted with 20 mL of methanol and the solution was analyzed for the auxin herbicide concentration using LC-MS methods known in the art.",
  "data": [
    {"compound": "CCCC[N+](CCCC)(CCCC)CCCC.COc1c(Cl)ccc(Cl)c1C(=O)[O-]", "note": "[TBA Dicamba, tetrabutylammonium (TBA) dicamba]", "values": [
      {"measurement": "Volatility Reduction", "result": 99.5, "unit": "%"}
    ]}
  ]
}
